# Source: patent US8877748B2, “Heterocyclic fused anthraquinone derivatives, manufacturing method and pharmaceutical composition using thereof” (National Defense Medical Center, priority 2012, dated 2014)
# What was measured:
# MDA-MB-231/ATCC = test: NCI one-dose screening, breast cancer MDA-MB-231/ATCC; type: cell-based, human; details: 10 μM
# MCF7 = test: NCI one-dose screening, breast cancer MCF7; type: cell-based, human; details: 10 μM
# NCI-H522 = test: NCI one-dose screening, non-small cell lung cancer NCI-H522; type: cell-based, human; details: 10 μM
# OVCAR-8 = test: NCI one-dose screening, ovarian cancer OVCAR-8; type: cell-based, human; details: 10 μM
# UO-31 = test: NCI one-dose screening, renal cancer UO-31; type: cell-based, human; details: 10 μM
# UACC-257 = test: NCI one-dose screening, melanoma UACC-257; type: cell-based, human; details: 10 μM
# PC-3 = test: NCI one-dose screening, prostate cancer PC-3; type: cell-based, human; details: 10 μM
# 786-O = test: NCI one-dose screening, renal cancer 786-O; type: cell-based, human; details: 10 μM
# MDA, -MB-435 = test: NCI one-dose screening, breast cancer MDA, -MB-435; type: cell-based, human; details: 10 μM; listed under Melanoma
# HCT-116 = test: NCI one-dose screening, colon cancer HCT-116; type: cell-based, human; details: 10 μM
# LOX IMVI = test: NCI one-dose screening, melanoma LOX IMVI; type: cell-based, human; details: 10 μM
# SN12C = test: NCI one-dose screening, renal cancer SN12C; type: cell-based, human; details: 10 μM
# MOLT-4 = test: NCI one-dose screening, leukemia MOLT-4; type: cell-based, human; details: 10 μM
# NCI-H460 = test: NCI one-dose screening, non-small cell lung cancer NCI-H460; type: cell-based, human; details: 10 μM
# OVCAR-5 = test: NCI one-dose screening, ovarian cancer OVCAR-5; type: cell-based, human; details: 10 μM
# HL-60, TB = test: NCI one-dose screening, leukemia HL-60, TB; type: cell-based, human; details: 10 μM
# OVCAR-3 = test: NCI one-dose screening, ovarian cancer OVCAR-3; type: cell-based, human; details: 10 μM
# HCC-2998 = test: NCI one-dose screening, colon cancer HCC-2998; type: cell-based, human; details: 10 μM
# SF-539 = test: NCI one-dose screening, CNS cancer SF-539; type: cell-based, human; details: 10 μM
# HOP-62 = test: NCI one-dose screening, non-small cell lung cancer HOP-62; type: cell-based, human; details: 10 μM
# SF-268 = test: NCI one-dose screening, CNS cancer SF-268; type: cell-based, human; details: 10 μM
# MALME-3M = test: NCI one-dose screening, melanoma MALME-3M; type: cell-based, human; details: 10 μM
# DU145 = test: NCI one-dose screening, prostate cancer DU145; type: cell-based, human; details: 10 μM
# IGROV1 = test: NCI one-dose screening, ovarian cancer IGROV1; type: cell-based, human; details: 10 μM
# [1] = tested on: PC-3 prostate cancer cell line; test: SRB assay cell viability, PC-3 prostate cancer cell line; type: cell-based, human; details: Homo sapiens, PC-3 prostate cancer cell line, Table II prints no unit, μM printed, read-out: SRB assay: 50% inhibition of cancer cell proliferation of sample concentration (IC50) of PC-3 prostate cancer cell line
# SNB-19 = test: NCI one-dose screening, CNS cancer SNB-19; type: cell-based, human; details: 10 μM
# KM12 = test: NCI one-dose screening, colon cancer KM12; type: cell-based, human; details: 10 μM
# PRMI-8226 cell line = test: NCI one-dose screening, leukemia PRMI-8226; type: cell-based, human; details: 10 μM
# BT-549 = test: NCI one-dose screening, breast cancer BT-549; type: cell-based, human; details: 10 μM
# RXF, 393 = test: NCI one-dose screening, renal cancer RXF, 393; type: cell-based, human; details: 10 μM
# ACHN = test: NCI one-dose screening, renal cancer ACHN; type: cell-based, human; details: 10 μM
# NCI-H226 = test: NCI one-dose screening, non-small cell lung cancer NCI-H226; type: cell-based, human; details: 10 μM
# NCI-H23 = test: NCI one-dose screening, non-small cell lung cancer NCI-H23; type: cell-based, human; details: 10 μM
# T-47D = test: NCI one-dose screening, breast cancer T-47D; type: cell-based, human; details: 10 μM
# human tumor cell lines = test: NCI one-dose screening, Mean / Delta / Range of growth percent over all tested cell lines; type: cell-based; details: 10 μM; for Growth Percent Delta: delta over all cell lines; for Growth Percent Mean: mean over all cell lines; for Growth Percent Range: range over all cell lines
# SNB-75 = test: NCI one-dose screening, CNS cancer SNB-75; type: cell-based, human; details: 10 μM
# UACC-62 = test: NCI one-dose screening, melanoma UACC-62; type: cell-based, human; details: 10 μM
# HT29 = test: NCI one-dose screening, colon cancer HT29; type: cell-based, human; details: 10 μM
# NCl/ADR-RES = test: NCI one-dose screening, breast cancer NCl/ADR-RES; type: cell-based, human; details: 10 μM; listed under Ovarian cancer
# [2] = NCI one-dose screening, renal cancer A489; type: cell-based, human; details: 10 μM
# SR = test: NCI one-dose screening, leukemia SR; type: cell-based, human; details: 10 μM
# MDA-MB-468 = test: NCI one-dose screening, breast cancer MDA-MB-468; type: cell-based, human; details: 10 μM
# HOP-92 = test: NCI one-dose screening, non-small cell lung cancer HOP-92; type: cell-based, human; details: 10 μM
# HCT-15 = test: NCI one-dose screening, colon cancer HCT-15; type: cell-based, human; details: 10 μM
# K562cell line = test: NCI one-dose screening, leukemia K562; type: cell-based, human; details: 10 μM
# TK-10 = test: NCI one-dose screening, renal cancer TK-10; type: cell-based, human; details: 10 μM
# SK-MEL-28 = test: NCI one-dose screening, melanoma SK-MEL-28; type: cell-based, human; details: 10 μM
# SK-MEL-5 = test: NCI one-dose screening, melanoma SK-MEL-5; type: cell-based, human; details: 10 μM
# U251 = test: NCI one-dose screening, CNS cancer U251; type: cell-based, human; details: 10 μM
# M14 = test: NCI one-dose screening, melanoma M14; type: cell-based, human; details: 10 μM
# EKVX = test: NCI one-dose screening, non-small cell lung cancer EKVX; type: cell-based, human; details: 10 μM
# COLO 205 = test: NCI one-dose screening, colon cancer COLO 205; type: cell-based, human; details: 10 μM
# A549/ATCC = test: NCI one-dose screening, non-small cell lung cancer A549/ATCC; type: cell-based, human; details: 10 μM
# SK-OV-3 = test: NCI one-dose screening, ovarian cancer SK-OV-3; type: cell-based, human; details: 10 μM
# HS 578-T = test: NCI one-dose screening, breast cancer HS 578-T; type: cell-based, human; details: 10 μM; Breast cancer
# SK-MEL-2 = test: NCI one-dose screening, melanoma SK-MEL-2; type: cell-based, human; details: 10 μM
structure (smiles),measurement,setting,value
"COc1cccc(Sc2cc3c(c4nsnc24)C(=O)c2ccccc2C3=O)c1 [C46, 4-(3-methoxy-phenyl-thio)anthra[2,1-c] [1,2,5]thiadiazol-6,11-dione]",Growth Percent MDA-MB-231/ATCC,MDA-MB-231/ATCC,87.08%
same,Growth Percent MCF7,MCF7,72.77%
same,Growth Percent NCI-H522,NCI-H522,82.41%
same,Growth Percent OVCAR-8,OVCAR-8,97.32%
same,Growth Percent UO-31,UO-31,75.49%
same,Growth Percent UACC-257,UACC-257,104/27
same,Growth Percent PC-3,PC-3,75.99%
same,Growth Percent 786-0,786-O,102.97%
same,Growth Percent MDA-MB-435,"MDA, -MB-435",72.50%
same,Growth Percent HCT-116,HCT-116,85.66%
same,Growth Percent LOX IMVI,LOX IMVI,70.96%
same,Growth Percent SN12C,SN12C,95.93%
same,Growth Percent MOLT-4,MOLT-4,35.83%
same,Growth Percent NCI-H460,NCI-H460,100.27%
same,Growth Percent OVCAR-5,OVCAR-5,122.58%
same,Growth Percent HL-60(TB),"HL-60, TB",84.53%
same,Growth Percent OVCAR-3,OVCAR-3,85.83%
same,Growth Percent HCC-2998,HCC-2998,104.94%
same,Growth Percent SF-539,SF-539,107.05%
same,Growth Percent HOP-62,HOP-62,61.81%
same,Growth Percent SF-268,SF-268,89.75%
same,Growth Percent MALME-3M,MALME-3M,113.06%
same,Growth Percent DU145,DU145,98.87%
same,Growth Percent IGROV1,IGROV1,99.91%
same,IC50,[1],> 15 µM
same,Growth Percent SNB-19,SNB-19,105.92%
same,Growth Percent KM12,KM12,97.06%
same,Growth Percent RPMI-8226,PRMI-8226 cell line,52.03%
same,Growth Percent BT-549,BT-549,94.91%
same,Growth Percent RXF 393,"RXF, 393",124.15%
same,Growth Percent ACHN,ACHN,98.70%
same,Growth Percent NCI-H226,NCI-H226,95.26%
same,Growth Percent NCI-H23,NCI-H23,76.42%
same,Growth Percent T-47D,T-47D,69.09%
same,Growth Percent Delta,human tumor cell lines,55.47%
same,Growth Percent Mean,human tumor cell lines,91.30%
same,Growth Percent Range,human tumor cell lines,94.97%
same,Growth Percent SNB-75,SNB-75,81.80%
same,Growth Percent UACC-62,UACC-62,87.72%
same,Growth Percent HT29,HT29,105.25%
same,Growth Percent NCI/ADR-RES,NCl/ADR-RES,92.67%
same,Growth Percent A498,[2],83.74%
same,Growth Percent SR,SR,36.14%
same,Growth Percent MDA-MB-468,MDA-MB-468,93.53%
same,Growth Percent HOP-92,HOP-92,100.52%
same,Growth Percent HCT-15,HCT-15,71.89%
same,Growth Percent K562,K562cell line,38.52%
same,Growth Percent TK-10,TK-10,130.80%
same,Growth Percent SK-MEL-28,SK-MEL-28,101.77%
same,Growth Percent SK-MEL-5,SK-MEL-5,100.11%
same,Growth Percent U251,U251,100.67%
same,Growth Percent M14,M14,94.23%
same,Growth Percent EKVX,EKVX,104.94%
same,Growth Percent COLO 205,COLO 205,109.57%
same,Growth Percent A549/ATCC,A549/ATCC,109.52%
same,Growth Percent SK-OV-3,SK-OV-3,110.30%
same,Growth Percent HS 578T,HS 578-T,93.84%
same,Growth Percent SK-MEL-2,SK-MEL-2,82.62%
"Cc1ccc(Sc2cc3c(c4nsnc24)C(=O)c2ccccc2C3=O)c(C)c1 [C25, 4-(2,4-dimethylphenylthio)anthra[2,1-c] [1,2,5]thiadiazol-6,11-dione]",Growth Percent MDA-MB-231/ATCC,MDA-MB-231/ATCC,92.27%
same,Growth Percent MCF7,MCF7,79.77%
same,Growth Percent NCI-H522,NCI-H522,96.81%
same,Growth Percent OVCAR-8,OVCAR-8,104.59%
same,Growth Percent UO-31,UO-31,65.72%
same,Growth Percent UACC-257,UACC-257,121.93%
same,Growth Percent PC-3,PC-3,76.11%
same,Growth Percent 786-0,786-O,105.11%
same,Growth Percent MDA-MB-435,"MDA, -MB-435",105.58%
same,Growth Percent HCT-116,HCT-116,94.55%
same,Growth Percent LOX IMVI,LOX IMVI,90.38%
same,Growth Percent SN12C,SN12C,98.68%
same,Growth Percent MOLT-4,MOLT-4,91.01%
same,Growth Percent NCI-H460,NCI-H460,102.01%
same,Growth Percent OVCAR-5,OVCAR-5,106.46%
same,Growth Percent HL-60(TB),"HL-60, TB",99.93%
same,Growth Percent OVCAR-3,OVCAR-3,105.38%
same,Growth Percent HCC-2998,HCC-2998,121.23%
same,Growth Percent SF-539,SF-539,100.22%
same,Growth Percent HOP-62,HOP-62,79.34%
same,Growth Percent SF-268,SF-268,90.61%
same,Growth Percent MALME-3M,MALME-3M,108.23%
same,Growth Percent DU145,DU145,109.69%
same,Growth Percent IGROV1,IGROV1,95.00%
same,IC50,[1],> 15 µM
same,Growth Percent SNB-19,SNB-19,102.33%
same,Growth Percent KM12,KM12,96.42%
same,Growth Percent RPMI-8226,PRMI-8226 cell line,85.14%
same,Growth Percent BT-549,BT-549,94.55%
same,Growth Percent RXF 393,"RXF, 393",105.93%
same,Growth Percent ACHN,ACHN,94.24%
same,Growth Percent NCI-H226,NCI-H226,01.50%
same,Growth Percent NCI-H23,NCI-H23,89.40%
same,Growth Percent T-47D,T-47D,75.36%
same,Growth Percent Delta,human tumor cell lines,31.54%
same,Growth Percent Mean,human tumor cell lines,97.26%
same,Growth Percent Range,human tumor cell lines,61.39%
same,Growth Percent SNB-75,SNB-75,76.05%
same,Growth Percent UACC-62,UACC-62,94.50%
same,Growth Percent HT29,HT29,101.47%
same,Growth Percent NCI/ADR-RES,NCl/ADR-RES,97.75%
same,Growth Percent A498,[2],84.37%
same,Growth Percent SR,SR,70.26%
same,Growth Percent MDA-MB-468,MDA-MB-468,100.45%
same,Growth Percent HOP-92,HOP-92,97.83%
same,Growth Percent HCT-15,HCT-15,83.04%
same,Growth Percent K562,K562cell line,67.97%
same,Growth Percent TK-10,TK-10,127.11%
same,Growth Percent SK-MEL-28,SK-MEL-28,118.64%
same,Growth Percent SK-MEL-5,SK-MEL-5,109.99%
same,Growth Percent U251,U251,104.99%
same,Growth Percent M14,M14,100.77%
same,Growth Percent EKVX,EKVX,108.79%
same,Growth Percent COLO 205,COLO 205,106.63%
same,Growth Percent A549/ATCC,A549/ATCC,109.80%
same,Growth Percent SK-OV-3,SK-OV-3,110.36%
same,Growth Percent HS 578T,HS 578-T,99.06%
same,Growth Percent SK-MEL-2,SK-MEL-2,98.52%
